From ChEMBL document CHEMBL1201862, “PubChem BioAssay data set” (2004) come the findings set out here.

Among the test systems are PC-3; M14; OVCAR-4; SK-MEL-5; TK-10; K562; MDA-N; HCT-15; SR; 786-0; SW-620; DU-145; COLO 205; UACC-62; OVCAR-5; UACC-257; NCI-H226; RXF 393.
Assay in all cases: growth of human tumour cells (NCI), 48 h

Each structure is given as a SMILES string.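 Cells were grown in 96-well plates and exposed to each compound for 48 hours at five concentrations; endpoints were interpolated linearly between bracketing concentrations, or set to the highest concentration if not reached. GI50 = concentration required for 50% inhibition of growth.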 Active and inactive are the calls of the source. Rule as the data show it: active = GI50 up to about 1.1 µM and inactive = higher.

Turning to `CCC1(CC)C(=O)OC(=O)C1(CC)CC`, the GI50 in the test with PC-3, in the test on M14, in the test on OVCAR-4, in the test with SK-MEL-5, with TK-10 and in the test on K562 was > 100 µM (inactive) in each case. Moreover, the GI50 with MDA-N is > 100 µM (inactive); in the test with HCT-15, more than 100 µM; in the test with SR, > 100 µM (inactive); with 786-0 it was > 100 µM (inactive); in the test with SW-620 it was > 100 µM (inactive); in the test on DU-145, > 100 µM (inactive). Further, the GI50 with COLO 205 and in the test on UACC-62 was > 100 µM (inactive) in each case.

For `CC(C)(C)C(=O)c1c(O)c2ccccc2c2ccccc2c1=O`, the GI50 in the test on PC-3 was > 100 µM (inactive); with M14 it was 95.3 µM (inactive); in the test with OVCAR-4, 62.1 µM (inactive); in the test on SK-MEL-5, > 100 µM (inactive); with TK-10, 97.5 µM (inactive); in the test with MDA-N, > 100 µM (inactive). In addition, the GI50 is 64.4 µM in the test on HCT-15; > 100 µM (inactive) in the test with 786-0; > 100 µM (inactive) in the test with SW-620; > 100 µM (inactive) in the test with OVCAR-5; > 100 µM (inactive) in the test with DU-145; > 100 µM (inactive) in the test on COLO 205. Besides, the GI50 in the test with UACC-62 is 76.4 µM (inactive); with UACC-257, > 100 µM (inactive); in the test with NCI-H226, 49.4 µM (inactive).

`O=C(NN=C1NCCCCN1)Nc1ccc(Cl)cc1`: the GI50 with PC-3 was 73.5 µM (inactive); in the test with OVCAR-4, > 100 µM (inactive); in the test with SK-MEL-5 it was > 100 µM (inactive); in the test on TK-10 it was > 100 µM (inactive); in the test with K562, 33 µM (inactive); with RXF 393, > 100 µM (inactive). Also, the GI50 with HCT-15 is more than 100 µM; with SR, 22.8 µM (inactive); in the test on 786-0 it was > 100 µM (inactive); with SW-620, > 100 µM (inactive); in the test on OVCAR-5, > 100 µM (inactive); in the test with COLO 205, > 100 µM (inactive). In addition, the GI50 in the test with UACC-62 is > 100 µM (inactive); with UACC-257, > 100 µM (inactive); in the test with NCI-H226, 85.1 µM (inactive).

Regarding `COC(=O)c1c2c(cc3c1CC1(Cc4cc5c(c(C(C)=O)c4C1)CCCC5)C3)CCCC2` (configuration not stated), the GI50 in the test with PC-3 is 24.6 µM (inactive); in the test on M14 it was > 100 µM (inactive); in the test on OVCAR-4, > 100 µM (inactive); in the test on SK-MEL-5, 34.1 µM (inactive); with TK-10, > 100 µM (inactive); with K562, 23.4 µM (inactive). The GI50 with MDA-N was 66.4 µM (inactive); with RXF 393, > 100 µM (inactive); with HCT-15, more than 100 µM; in the test on SR, 3.02 µM (inactive); in the test on 786-0, > 100 µM (inactive); in the test on OVCAR-5, > 100 µM (inactive). Besides, the GI50 was > 100 µM (inactive) in the test on COLO 205, > 100 µM (inactive) in the test with UACC-62, 56 µM (inactive) in the test with UACC-257 and > 100 µM (inactive) with NCI-H226.

In the case of `CC1=NNC(=O)C1C1CC(c2c[nH]c3ccccc23)=NNC1=S` (configuration not stated), the GI50 was > 100 µM (inactive) with PC-3; > 100 µM (inactive) with M14; > 100 µM (inactive) in the test with SK-MEL-5; > 100 µM (inactive) in the test on TK-10; 48.5 µM (inactive) with K562; > 100 µM (inactive) in the test with MDA-N. The GI50 in the test on RXF 393 is > 100 µM (inactive); in the test on HCT-15, 39.7 µM; with 786-0, > 100 µM (inactive); in the test with SW-620, > 100 µM (inactive); in the test on OVCAR-5 it was > 100 µM (inactive); in the test on DU-145 it was > 100 µM (inactive). The GI50 was 72.1 µM (inactive) in the test on COLO 205, > 100 µM (inactive) in the test with UACC-62, > 100 µM (inactive) with UACC-257 and > 100 µM (inactive) with NCI-H226.

Turning to `CC1CC(NN)=Nc2ccccc2N1` (configuration not stated), the GI50 with PC-3 was > 100 µM (inactive); with M14, > 100 µM (inactive); in the test on OVCAR-4 it was > 100 µM (inactive); in the test on SK-MEL-5, > 100 µM (inactive); in the test on TK-10, > 100 µM (inactive); in the test on K562, 49.2 µM (inactive). The GI50 in the test on MDA-N is > 100 µM (inactive); with HCT-15, more than 100 µM; in the test on 786-0, > 100 µM (inactive); in the test with SW-620, > 100 µM (inactive); in the test on OVCAR-5, > 100 µM (inactive); with DU-145, > 100 µM (inactive). Further, the GI50 with COLO 205, in the test with UACC-62, in the test on UACC-257 and with NCI-H226 was > 100 µM (inactive) in each case.

As for `OCc1ccc2c(c1)CC1(Cc3ccc(/C=N/O)cc3C1)C2` (configuration not stated), the GI50 in the test on PC-3 is 3.74 µM (inactive); in the test with M14, 1.99 µM (inactive); with OVCAR-4, 1.92 µM (inactive); in the test on SK-MEL-5 it was 1.34 µM (inactive); in the test with TK-10, 13.4 µM (inactive); in the test on K562 it was 1.8 µM (inactive). The GI50 in the test on MDA-N was 0.328 µM (active); in the test on HCT-15, 1.16 µM; with 786-0, 10.4 µM (inactive); in the test on SW-620 it was 1.68 µM (inactive); with OVCAR-5 it was 23.7 µM (inactive); in the test on DU-145 it was 5.24 µM (inactive). In addition, the GI50 is 3.1 µM (inactive) in the test with COLO 205, 3.24 µM (inactive) in the test on UACC-62, 2.19 µM (inactive) in the test with UACC-257 and 10 µM (inactive) in the test with NCI-H226.

With `NS(=O)(=O)c1nnc(NC(=O)C23CC4CC(CC(C4)C2)C3)s1`, the GI50 is > 100 µM (inactive) in the test with M14; 0.101 µM (active) with OVCAR-4; 96.2 µM (inactive) in the test with SK-MEL-5; > 100 µM (inactive) in the test with TK-10; > 100 µM (inactive) in the test on K562; > 100 µM (inactive) with MDA-N. The GI50 in the test on RXF 393 is 61.7 µM (inactive); in the test on HCT-15 it was more than 100 µM; with SR, > 100 µM (inactive); with 786-0, > 100 µM (inactive); in the test on SW-620 it was > 100 µM (inactive); in the test with OVCAR-5, > 100 µM (inactive). Further, the GI50 in the test with DU-145, in the test with COLO 205, with UACC-62, in the test on UACC-257 and with NCI-H226 was > 100 µM (inactive) throughout.

`CN1CCC2(CC1)/C(=N/C1CCCCC1)NC(=S)N2c1ccccc1`: the GI50 in the test with M14, in the test with OVCAR-4, with SK-MEL-5, in the test on TK-10, in the test on K562 and with RXF 393 was > 100 µM (inactive) in each case. Further, the GI50 was more than 100 µM in the test on HCT-15; > 100 µM (inactive) with SR; > 100 µM (inactive) with 786-0; > 100 µM (inactive) in the test on SW-620; > 100 µM (inactive) with OVCAR-5; > 100 µM (inactive) in the test on DU-145. Also, the GI50 with COLO 205, in the test with UACC-62, in the test with UACC-257 and with NCI-H226 was > 100 µM (inactive) each time.

Take `O=C(N/N=C(COc1cccc(Cl)c1)\N=C\c1ccncc1)c1ccncc1`: the GI50 with PC-3, with M14, with OVCAR-4, in the test with TK-10, in the test on K562 and with MDA-N was > 100 µM (inactive) in each case. Further, the GI50 in the test on RXF 393 is 36.4 µM (inactive); in the test on HCT-15 it was more than 100 µM; with 786-0 it was > 100 µM (inactive); with SW-620, > 100 µM (inactive); in the test on OVCAR-5 it was > 100 µM (inactive); in the test on DU-145, > 100 µM (inactive). Also, the GI50 with COLO 205, in the test on UACC-62, in the test on UACC-257 and with NCI-H226 was > 100 µM (inactive) in each case.

Take `COc1ccc(OC)c2sc(N3C(=O)/C(=C/c4ccc(N(C)C)cc4)N=C3c3ccccc3)nc12`: the GI50 in the test on PC-3 was 33 µM (inactive); in the test with M14 it was 99.3 µM (inactive); with OVCAR-4, > 100 µM (inactive); in the test with SK-MEL-5, 39.2 µM (inactive); with TK-10, > 100 µM (inactive); in the test with K562, 79.8 µM (inactive). Further, the GI50 with MDA-N was 22.2 µM (inactive); in the test on HCT-15, 59.2 µM; with SR, 19.6 µM (inactive); in the test with 786-0, 92.3 µM (inactive); in the test with SW-620, 49.8 µM (inactive); in the test with OVCAR-5, > 100 µM (inactive). The GI50 was > 100 µM (inactive) in the test on DU-145, > 100 µM (inactive) in the test with COLO 205, 28.3 µM (inactive) in the test on UACC-62 and > 100 µM (inactive) in the test on UACC-257.

`CC(=O)/C(=C\c1ccc(Cl)c(Cl)c1)C(=O)C(C)CN(C)C` (configuration not stated): the GI50 is 4.62 µM (inactive) with PC-3; 9.75 µM (inactive) with M14; 11.9 µM (inactive) in the test on SK-MEL-5; 1.94 µM (inactive) in the test with TK-10; 3.62 µM (inactive) in the test with MDA-N; 2.33 µM in the test with HCT-15. The GI50 is 1.82 µM (inactive) with SR; 2.39 µM (inactive) in the test on 786-0; 2.69 µM (inactive) in the test with SW-620; 10.8 µM (inactive) in the test on OVCAR-5; 4.43 µM (inactive) in the test with DU-145; 11.4 µM (inactive) in the test on COLO 205. Moreover, the figures for the GI50 in the test with UACC-257 and with NCI-H226 were 10.4 µM (inactive) and 2.39 µM (inactive), respectively.

On to `Cc1nc2ccc(F)cc2c2c1CCN2c1ccccc1`, for which the GI50 in the test with PC-3 is 19.1 µM (inactive); in the test with OVCAR-4, 23.7 µM (inactive); with SK-MEL-5, 12.9 µM (inactive); with TK-10 it was 22.9 µM (inactive); in the test with K562 it was 11.8 µM (inactive); with RXF 393 it was 15 µM (inactive). Moreover, the GI50 in the test with HCT-15 is 25.9 µM; in the test on SR, 16.7 µM (inactive); in the test on 786-0, 23 µM (inactive); in the test on SW-620, 23.4 µM (inactive); in the test with DU-145, 31.4 µM (inactive); with COLO 205, 11.9 µM (inactive). In addition, the GI50 in the test on UACC-62 is 12 µM (inactive); in the test on UACC-257, 18.2 µM (inactive); with NCI-H226, 16.6 µM (inactive).
